One assay concerns Type II α7-nAChRs. As to conditions: cited from earlier work.
For another assay, the target named is α7-2-nAChRs (Rattus norvegicus, UniProt Q05941, INS117GCQLHFDQDLQNMLLREACAQAGEDLRVS). Nature of the assay: Two-electrode voltage-clamp of Xenopus oocytes injected with α7-2 cRNA.
A further assay has as its target α7-1-nAChRs (Rattus norvegicus, UniProt Q05941). Nature of the assay: Two-electrode voltage-clamp of Xenopus oocytes injected with α7-1 cRNA.

In the case of α-bungarotoxin [αBgt], in the assay on Type II α7-nAChRs, the “block by αBgt” value is given as > 90% and the “time of toxin washout within which inhibition is reversed” value is recorded as ≤ 5 min. Further, at α7-2-nAChRs, the “block by αBgt” value is > 90%; the “effect on transient and sustained components of the ACh-evoked current” value is recorded as “abolished”; the “inhibition of peak ACh-evoked current” value was 93±3%; the “reversal of αBgt inhibition after washout” value was “recovered to near control levels”. Besides, the “time of toxin washout within which inhibition is reversed” value on α7-2-nAChRs was ≤ 5 min. At α7-1-nAChRs, the “reversal of αBgt block after washout” value was “did not appreciably reverse”.
